Experimental data: ChEMBL document CHEMBL3124828, “A 2,6,9-hetero-trisubstituted purine inhibitor exhibits potent biological effects against multiple myeloma cells” (Bioorg Med Chem, 2013)
pEC50, pIC50: −log10 of the molar value. Active and inactive are the calls of the source. No cut-off for these calls is given here.

Legend:
JJN-3 [1] = assay: Induction of apoptosis in human JJN-3 cells assessed as late apoptotic cells at 15 uM after 48 hrs by annexinV/propidium iodide staining (reference value: 9.59%); type: functional
JJN-3 [2] = assay: Induction of apoptosis in human JJN-3 cells assessed as viable cells at 15 uM after 48 hrs by annexinV/propidium iodide staining (reference value: 75.9%); type: functional; conditions: JJN-3, 48 h, read-out: Activity
[3] = Induction of apoptosis in human XG6 cells assessed as viable cells at 15 uM after 48 hrs by annexinV/propidium iodide staining (reference value: 83.3%); type: functional; conditions: XG6, 48 h, read-out: Activity
[4] = Induction of apoptosis in human XG6 cells assessed as late apoptotic cells at 15 uM after 48 hrs by annexinV/propidium iodide staining (reference value: 7.78%); type: functional
[5] = Induction of apoptosis in human XG6 cells assessed as early apoptotic cells at 15 uM after 48 hrs by annexinV/propidium iodide staining (reference value: 8.62%); type: functional
JJN-3 [6] = assay: Induction of apoptosis in human JJN-3 cells assessed as early apoptotic cells at 15 uM after 48 hrs by annexinV/propidium iodide staining (reference value: 13.3%); type: functional
[7] = molecular target: T1, Tyrosine-protein kinase JAK3 (Homo sapiens) (UniProt P52333); assay: Inhibition of JAK3 (unknown origin) at 50 uM after 20 mins
T1 sequence (whole entry): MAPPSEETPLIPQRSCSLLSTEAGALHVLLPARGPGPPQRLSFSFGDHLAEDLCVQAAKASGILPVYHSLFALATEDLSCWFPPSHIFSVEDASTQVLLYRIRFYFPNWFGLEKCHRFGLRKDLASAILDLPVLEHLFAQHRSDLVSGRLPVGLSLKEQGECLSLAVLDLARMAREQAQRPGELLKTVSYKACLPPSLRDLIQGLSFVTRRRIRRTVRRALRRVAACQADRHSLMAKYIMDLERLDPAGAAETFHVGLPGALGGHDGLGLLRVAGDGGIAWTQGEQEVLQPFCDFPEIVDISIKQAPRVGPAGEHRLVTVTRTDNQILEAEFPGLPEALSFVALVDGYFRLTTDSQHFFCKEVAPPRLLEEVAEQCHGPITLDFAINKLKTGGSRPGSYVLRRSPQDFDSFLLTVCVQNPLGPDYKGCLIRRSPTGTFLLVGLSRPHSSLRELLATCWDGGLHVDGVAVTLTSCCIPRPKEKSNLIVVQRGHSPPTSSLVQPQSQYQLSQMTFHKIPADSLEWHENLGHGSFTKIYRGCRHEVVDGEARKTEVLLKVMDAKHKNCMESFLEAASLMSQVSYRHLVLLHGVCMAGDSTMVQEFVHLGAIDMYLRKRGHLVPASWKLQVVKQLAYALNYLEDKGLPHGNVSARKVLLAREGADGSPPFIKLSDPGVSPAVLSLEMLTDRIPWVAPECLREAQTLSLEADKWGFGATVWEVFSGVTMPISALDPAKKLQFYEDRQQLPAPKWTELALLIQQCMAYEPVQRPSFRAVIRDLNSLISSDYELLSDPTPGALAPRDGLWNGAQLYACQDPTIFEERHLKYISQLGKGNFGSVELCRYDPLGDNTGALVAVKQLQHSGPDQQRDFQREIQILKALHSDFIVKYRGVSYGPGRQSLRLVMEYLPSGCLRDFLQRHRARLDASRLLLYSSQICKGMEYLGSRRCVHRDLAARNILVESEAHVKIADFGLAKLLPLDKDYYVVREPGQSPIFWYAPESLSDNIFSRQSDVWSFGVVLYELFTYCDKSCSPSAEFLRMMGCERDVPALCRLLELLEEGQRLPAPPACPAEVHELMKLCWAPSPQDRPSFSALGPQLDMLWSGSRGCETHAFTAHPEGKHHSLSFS

JJN-3 [8] = assay: Induction of apoptosis in human JJN-3 cells assessed as late apoptotic cells at 12.5 uM after 48 hrs by annexinV/propidium iodide staining (reference value: 9.59%); type: functional
JJN-3 [9] = assay: Induction of apoptosis in human JJN-3 cells assessed as late apoptotic cells at 7.5 uM after 48 hrs by annexinV/propidium iodide staining (reference value: 9.59%); type: functional
[10] = molecular target: Signal transducer and activator of transcription 3 (Homo sapiens) (UniProt P40763); assay: Inhibition of STAT3 phosphorylation in IL-6 stimulated human OPM2 cells at > IC50 after 30 mins by flow cytometry; type: cell-based; conditions: OPM-2
[11] = molecular target: Leukocyte tyrosine kinase receptor (Homo sapiens, UniProt P29376); assay: Inhibition of TYK1 (unknown origin) after 20 mins
[12] = molecular target: AP2-associated protein kinase 1 (Homo sapiens) (UniProt Q2M2I8); assay: Inhibition of AAK1 (unknown origin) at 2.5 uM after 20 mins
[13] = Induction of apoptosis in human XG6 cells assessed as viable cells at 7.5 uM after 48 hrs by annexinV/propidium iodide staining (reference value: 83.3%); type: functional; conditions: XG6, 48 h, read-out: Activity
[14] = molecular target: T2, Tyrosine-protein kinase JAK2 (Homo sapiens, UniProt O60674); assay: Inhibition of JAK2 (unknown origin) at 50 uM after 20 mins
[15] = molecular target: Signal transducer and activator of transcription 3 (Homo sapiens) (UniProt P40763); assay: Displacement of FAM-GpYLPQTV-NH2 from full-length Stat3 SH2 domain (unknown origin) up to 400 uM by fluorescence polarization
OCI-AML2 = assay: Cytotoxicity against human OCI-AML2 cells after 72 hrs by MTS assay; type: functional, cell-based
XG6 [16] = assay: Cytotoxicity against human XG6 cells assessed as growth inhibition at 10 uM after 48 hrs by MTT assay; type: functional, cell-based
[17] = Induction of apoptosis in human XG6 cells assessed as viable cells at 12.5 uM after 48 hrs by annexinV/propidium iodide staining (reference value: 83.3%); type: functional; conditions: XG6, 48 h, read-out: Activity
[18] = molecular target: Tyrosine-protein kinase JAK1 (Homo sapiens) (UniProt P23458); assay: Inhibition of JAK1 (unknown origin) at 100 uM after 20 mins
[19] = Induction of apoptosis in human XG6 cells assessed as early apoptotic cells at 7.5 uM after 48 hrs by annexinV/propidium iodide staining (reference value: 8.62%); type: functional
JJN-3 [20] = assay: Induction of apoptosis in human JJN-3 cells assessed as early apoptotic cells at 12.5 uM after 48 hrs by annexinV/propidium iodide staining (reference value: 13.3%); type: functional
XG6 [21] = assay: Induction of apoptosis in human XG6 cells assessed as late apoptotic cells at 15 uM after 48 hrs by annexinV/propidium iodide staining; type: functional, cell-based
[22] = molecular target: T3, Tyrosine-protein kinase JAK3 (Homo sapiens, UniProt P52333); assay: Inhibition of JAK3 (unknown origin) after 20 mins
T3 sequence (P52333 whole entry): T1 sequence (whole entry)

[23] = test system: Tyrosine-protein kinase ABL1 (Homo sapiens), P00519 [F317L]; assay: Inhibition of ABL1 F317L mutant (unknown origin) at 2.5 uM after 20 mins
JJN-3 [24] = assay: Cytotoxicity against human JJN-3 cells assessed as growth inhibition after 48 hrs by MTT assay; type: functional, cell-based
[25] = molecular target: T2, Tyrosine-protein kinase JAK2; assay: Inhibition of JAK2 (unknown origin) after 20 mins
[26] = Induction of apoptosis in human XG6 cells assessed as late apoptotic cells at 7.5 uM after 48 hrs by annexinV/propidium iodide staining (reference value: 7.78%); type: functional
MDA-MB-468 = assay: Cytotoxicity against human MDA-MB-468 cells after 72 hrs by MTS assay; type: functional, cell-based
[27] = molecular target: Signal transducer and activator of transcription 3 (Homo sapiens) (UniProt P40763); assay: Displacement of FAM-GpYLPQTV-NH2 from full-length Stat3 SH2 domain (unknown origin) up to 100 uM by fluorescence polarization
SK-MM-2 = assay: Cytotoxicity against human SKMM-2 cells assessed as growth inhibition after 48 hrs by MTT assay; type: functional, cell-based
[28] = Induction of apoptosis in human XG6 cells assessed as late apoptotic cells at 12.5 uM after 48 hrs by annexinV/propidium iodide staining (reference value: 7.78%); type: functional
[29] = Induction of apoptosis in human XG6 cells assessed as early apoptotic cells at 12.5 uM after 48 hrs by annexinV/propidium iodide staining (reference value: 8.62%); type: functional
JJN-3 [30] = assay: Induction of apoptosis in human JJN-3 cells assessed as viable cells at 7.5 uM after 48 hrs by annexinV/propidium iodide staining (reference value: 75.9%); type: functional; conditions: JJN-3, 48 h, read-out: Activity
JJN-3 [31] = assay: Induction of apoptosis in human JJN-3 cells assessed as viable cells at 12.5 uM after 48 hrs by annexinV/propidium iodide staining (reference value: 75.9%); type: functional; conditions: JJN-3, 48 h, read-out: Activity
JJN-3 [32] = assay: Induction of apoptosis in human JJN-3 cells assessed as early apoptotic cells at 7.5 uM after 48 hrs by annexinV/propidium iodide staining (reference value: 13.3%); type: functional
DU-145 = assay: Cytotoxicity against human DU145 cells after 72 hrs by MTS assay; type: functional, cell-based

Signal transducer and activator of transcription 3 (Homo sapiens), sequence (P40763 whole entry, the tested form may be a part): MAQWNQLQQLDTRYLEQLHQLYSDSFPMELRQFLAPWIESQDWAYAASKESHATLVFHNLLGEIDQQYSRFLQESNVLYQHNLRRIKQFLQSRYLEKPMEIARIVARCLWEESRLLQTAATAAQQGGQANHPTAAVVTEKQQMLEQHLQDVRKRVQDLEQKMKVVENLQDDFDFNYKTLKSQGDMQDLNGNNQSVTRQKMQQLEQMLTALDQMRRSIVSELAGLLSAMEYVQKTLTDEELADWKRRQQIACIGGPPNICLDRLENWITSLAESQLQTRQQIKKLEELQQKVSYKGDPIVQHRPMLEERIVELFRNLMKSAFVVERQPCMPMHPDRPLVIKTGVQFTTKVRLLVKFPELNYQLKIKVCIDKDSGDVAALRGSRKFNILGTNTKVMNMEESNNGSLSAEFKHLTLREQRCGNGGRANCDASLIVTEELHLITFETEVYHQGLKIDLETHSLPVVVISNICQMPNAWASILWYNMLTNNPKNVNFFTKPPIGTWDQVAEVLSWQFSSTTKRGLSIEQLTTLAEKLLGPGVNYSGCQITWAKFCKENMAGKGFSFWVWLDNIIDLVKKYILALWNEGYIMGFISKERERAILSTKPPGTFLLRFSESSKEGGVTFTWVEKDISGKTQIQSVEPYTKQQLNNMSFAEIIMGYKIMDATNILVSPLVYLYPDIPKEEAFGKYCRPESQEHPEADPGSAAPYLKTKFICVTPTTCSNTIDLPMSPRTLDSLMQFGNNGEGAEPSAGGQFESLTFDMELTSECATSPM
T2 sequence (O60674 whole entry, the tested form may be a part): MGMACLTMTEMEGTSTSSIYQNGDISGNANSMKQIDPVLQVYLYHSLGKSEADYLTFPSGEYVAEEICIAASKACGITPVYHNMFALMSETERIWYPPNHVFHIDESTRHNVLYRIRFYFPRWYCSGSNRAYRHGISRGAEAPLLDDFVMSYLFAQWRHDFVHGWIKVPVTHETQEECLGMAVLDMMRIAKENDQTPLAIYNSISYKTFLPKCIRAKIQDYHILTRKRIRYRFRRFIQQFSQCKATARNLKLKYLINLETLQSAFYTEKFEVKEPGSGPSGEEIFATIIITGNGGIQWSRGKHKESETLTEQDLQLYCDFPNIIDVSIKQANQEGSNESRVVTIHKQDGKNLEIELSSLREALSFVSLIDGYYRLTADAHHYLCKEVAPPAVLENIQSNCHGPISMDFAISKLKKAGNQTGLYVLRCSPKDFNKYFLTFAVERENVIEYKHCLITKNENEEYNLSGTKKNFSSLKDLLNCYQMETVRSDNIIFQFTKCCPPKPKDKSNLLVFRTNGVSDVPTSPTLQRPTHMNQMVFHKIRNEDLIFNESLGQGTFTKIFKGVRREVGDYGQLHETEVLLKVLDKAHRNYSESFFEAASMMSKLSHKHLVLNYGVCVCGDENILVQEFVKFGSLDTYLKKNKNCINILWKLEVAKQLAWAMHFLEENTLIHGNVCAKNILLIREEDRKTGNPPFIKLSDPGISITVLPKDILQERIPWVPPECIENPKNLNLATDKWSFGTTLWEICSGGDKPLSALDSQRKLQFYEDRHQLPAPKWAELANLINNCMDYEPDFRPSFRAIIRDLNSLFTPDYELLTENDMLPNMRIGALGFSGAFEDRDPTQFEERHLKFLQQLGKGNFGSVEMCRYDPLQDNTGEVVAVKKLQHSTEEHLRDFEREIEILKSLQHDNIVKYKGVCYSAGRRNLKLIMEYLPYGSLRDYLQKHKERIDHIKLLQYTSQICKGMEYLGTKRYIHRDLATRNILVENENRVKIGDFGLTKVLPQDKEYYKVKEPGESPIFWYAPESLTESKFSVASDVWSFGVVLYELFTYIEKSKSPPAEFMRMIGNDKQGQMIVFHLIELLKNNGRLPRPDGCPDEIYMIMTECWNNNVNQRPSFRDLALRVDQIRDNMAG
Leukocyte tyrosine kinase receptor, sequence (P29376 whole entry): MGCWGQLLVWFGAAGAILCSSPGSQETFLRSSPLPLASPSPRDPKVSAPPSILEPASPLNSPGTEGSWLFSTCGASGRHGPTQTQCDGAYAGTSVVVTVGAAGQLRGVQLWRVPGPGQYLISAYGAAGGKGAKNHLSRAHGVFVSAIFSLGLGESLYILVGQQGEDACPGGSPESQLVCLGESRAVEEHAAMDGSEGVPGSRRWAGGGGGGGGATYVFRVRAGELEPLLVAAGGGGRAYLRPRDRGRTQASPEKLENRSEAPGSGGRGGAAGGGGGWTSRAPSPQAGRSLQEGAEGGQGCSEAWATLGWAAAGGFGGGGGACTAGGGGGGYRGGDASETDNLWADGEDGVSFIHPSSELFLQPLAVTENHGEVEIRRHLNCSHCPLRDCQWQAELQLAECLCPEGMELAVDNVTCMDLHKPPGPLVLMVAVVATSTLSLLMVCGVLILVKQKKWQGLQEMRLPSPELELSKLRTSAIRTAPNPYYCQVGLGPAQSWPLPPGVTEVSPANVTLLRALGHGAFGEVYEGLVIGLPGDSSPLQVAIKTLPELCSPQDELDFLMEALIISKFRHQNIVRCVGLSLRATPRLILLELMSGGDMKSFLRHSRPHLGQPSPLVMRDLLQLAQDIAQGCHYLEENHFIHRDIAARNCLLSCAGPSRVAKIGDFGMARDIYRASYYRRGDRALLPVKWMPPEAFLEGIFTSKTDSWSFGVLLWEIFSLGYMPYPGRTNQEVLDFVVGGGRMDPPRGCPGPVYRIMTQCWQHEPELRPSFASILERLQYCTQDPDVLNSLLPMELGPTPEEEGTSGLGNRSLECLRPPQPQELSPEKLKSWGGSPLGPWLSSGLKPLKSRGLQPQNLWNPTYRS
Tyrosine-protein kinase ABL1 (Homo sapiens), P00519 [F317L], sequence (P00519 whole entry F317L): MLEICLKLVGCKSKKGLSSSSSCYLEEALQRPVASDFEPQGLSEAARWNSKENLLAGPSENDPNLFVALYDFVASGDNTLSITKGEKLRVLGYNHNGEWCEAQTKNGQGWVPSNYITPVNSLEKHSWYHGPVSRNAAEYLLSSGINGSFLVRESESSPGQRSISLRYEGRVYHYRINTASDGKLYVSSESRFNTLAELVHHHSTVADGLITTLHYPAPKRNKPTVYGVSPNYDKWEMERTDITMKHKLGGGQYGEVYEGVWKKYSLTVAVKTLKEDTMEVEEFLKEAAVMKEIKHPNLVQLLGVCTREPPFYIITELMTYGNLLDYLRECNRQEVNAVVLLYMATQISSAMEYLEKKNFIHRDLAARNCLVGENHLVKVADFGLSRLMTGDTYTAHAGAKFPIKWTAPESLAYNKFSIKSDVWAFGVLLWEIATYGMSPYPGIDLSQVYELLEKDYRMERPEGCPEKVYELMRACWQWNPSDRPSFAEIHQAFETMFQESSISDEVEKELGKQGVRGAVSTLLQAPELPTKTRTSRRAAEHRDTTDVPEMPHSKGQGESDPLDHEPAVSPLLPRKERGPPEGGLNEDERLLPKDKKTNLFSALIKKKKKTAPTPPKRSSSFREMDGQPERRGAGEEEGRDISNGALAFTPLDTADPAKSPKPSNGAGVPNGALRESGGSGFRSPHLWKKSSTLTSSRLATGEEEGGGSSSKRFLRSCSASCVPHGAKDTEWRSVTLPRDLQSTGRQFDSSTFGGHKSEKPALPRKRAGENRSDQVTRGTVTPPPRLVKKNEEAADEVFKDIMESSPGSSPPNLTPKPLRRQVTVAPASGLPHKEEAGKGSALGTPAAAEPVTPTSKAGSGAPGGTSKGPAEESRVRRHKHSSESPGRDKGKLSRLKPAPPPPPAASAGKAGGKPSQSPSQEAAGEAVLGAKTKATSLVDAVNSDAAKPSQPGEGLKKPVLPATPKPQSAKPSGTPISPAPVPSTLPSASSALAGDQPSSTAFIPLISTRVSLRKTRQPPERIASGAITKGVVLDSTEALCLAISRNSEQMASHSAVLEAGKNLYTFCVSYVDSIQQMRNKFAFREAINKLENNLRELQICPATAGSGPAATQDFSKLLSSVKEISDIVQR
Tyrosine-protein kinase JAK1 (Homo sapiens), sequence (P23458 whole entry): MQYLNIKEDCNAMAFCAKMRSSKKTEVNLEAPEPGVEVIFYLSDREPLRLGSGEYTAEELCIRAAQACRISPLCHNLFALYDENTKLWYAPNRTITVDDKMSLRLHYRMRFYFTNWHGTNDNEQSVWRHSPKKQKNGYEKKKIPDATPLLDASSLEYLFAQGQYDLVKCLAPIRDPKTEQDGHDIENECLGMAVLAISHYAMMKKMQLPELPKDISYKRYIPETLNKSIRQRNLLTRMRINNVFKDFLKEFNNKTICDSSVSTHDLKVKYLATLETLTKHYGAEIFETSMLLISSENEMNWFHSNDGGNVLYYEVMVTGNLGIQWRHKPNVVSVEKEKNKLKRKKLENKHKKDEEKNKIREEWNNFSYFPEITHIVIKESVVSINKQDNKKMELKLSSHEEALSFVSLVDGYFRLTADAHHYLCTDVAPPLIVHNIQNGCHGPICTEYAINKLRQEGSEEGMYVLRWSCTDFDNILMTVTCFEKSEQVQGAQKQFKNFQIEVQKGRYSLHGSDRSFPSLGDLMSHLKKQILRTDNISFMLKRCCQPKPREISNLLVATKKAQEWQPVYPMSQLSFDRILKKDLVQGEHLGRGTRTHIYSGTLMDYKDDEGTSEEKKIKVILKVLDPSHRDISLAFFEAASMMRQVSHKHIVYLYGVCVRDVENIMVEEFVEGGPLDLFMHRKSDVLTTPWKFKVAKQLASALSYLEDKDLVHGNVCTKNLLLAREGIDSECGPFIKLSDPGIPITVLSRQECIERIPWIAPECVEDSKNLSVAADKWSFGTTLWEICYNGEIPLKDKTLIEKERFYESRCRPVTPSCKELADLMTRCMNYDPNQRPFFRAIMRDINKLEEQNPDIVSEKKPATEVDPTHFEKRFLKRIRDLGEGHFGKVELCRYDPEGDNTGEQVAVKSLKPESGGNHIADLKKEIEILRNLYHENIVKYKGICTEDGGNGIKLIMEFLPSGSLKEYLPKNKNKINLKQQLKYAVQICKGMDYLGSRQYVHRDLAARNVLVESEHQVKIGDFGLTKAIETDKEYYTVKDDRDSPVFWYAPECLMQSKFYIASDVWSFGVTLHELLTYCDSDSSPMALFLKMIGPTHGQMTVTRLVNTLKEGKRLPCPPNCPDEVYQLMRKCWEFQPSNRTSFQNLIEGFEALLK

SMILES: N[C@@H](Cc1ccc(N(CCCl)CCCl)cc1)C(=O)O [MELPHALAN]
- Activity (JJN-3 [1]): 23.7%
- viability at 15 µM (JJN-3 [2]): 54.5%
- viability at 15 µM [3]: 30.8%
- Activity [4]: 34.8%
- Activity [5]: 34%
- Activity (JJN-3 [6]): 19.3%

SMILES: NS(=O)(=O)OCCn1cnc2c(Nc3ccc(F)cc3)nc(NCc3ccc(C4CCCCC4)cc3)nc21
- inhibition [7]: 85%
- Activity (JJN-3 [8]): 38.8%
- Activity (JJN-3 [9]): 16%
- inhibition [10]: inactive
- pIC50 [11]: 4.97
- inhibition [12]: 52%
- viability at 7.5 µM [13]: 53.8%
- inhibition [14]: 50%
- inhibition [15]: inactive
- Activity (OCI-AML2): Active
- growth inhibition (GI) (XG6 [16]): Active
- viability at 12.5 µM [17]: 1.98%
- inhibition [18]: Active
- Activity [19]: 22.7%
- Activity (JJN-3 [20]): 19.5%
- Activity (XG6 [21]): Active
- pIC50 [22]: 4.98
- inhibition [23]: 50%
- growth inhibition (GI) (JJN-3 [24]): inactive
- pIC50 [25]: 4.78
- Activity [26]: 23.2%
- pEC50 (MDA-MB-468; MDA-MB-468, 72 h): 4.70
- inhibition [27]: inactive
- growth inhibition (GI) (SK-MM-2): Active
- Activity [28]: 74.4%
- Activity [29]: 7.57%
- viability at 7.5 µM (JJN-3 [30]): 64.5%
- viability at 12.5 µM (JJN-3 [31]): 36.4%
- Activity (JJN-3 [32]): 17.6%
- Activity (DU-145): Active

SMILES: CCOC(=O)Cn1cnc2c(Nc3ccc(F)cc3)nc(NCc3ccc(C4CCCCC4)cc3)nc21
- inhibition [15]: inactive
- Activity (OCI-AML2): inactive
- Activity (MDA-MB-468): inactive
- Activity (DU-145): inactive
